Measured values from the NIST ThermoML archive (doi:10.1016/j.jct.2007.04.005).

Experiment: xn = mol fraction of the nth substance listed
Conditions: 328.15 K, Liquid

CCCCCCCCC [nonane] + C1CCCCC1
mass density [kg/m3]
Conditions	x2 = 0	x2 = 0.09303	x2 = 0.2009	x2 = 0.3051	x2 = 0.417	x2 = 0.512	x2 = 0.5996	x2 = 0.7052	x2 = 0.7993	x2 = 0.9039
18340 kPa	–	–	–	–	–	–	–	737.9	744.5	753.1
20370 kPa	708.4	711.2	715.1	719	723.6	728	733	739.5	746.2	754.8
22390 kPa	710	712.8	716.7	720.6	725.2	729.6	734.7	741.2	747.9	756.5
24420 kPa	711.5	714.4	718.2	722.2	726.8	731.2	736.3	742.8	749.5	758.1
26450 kPa	713	715.9	719.8	723.7	728.3	732.7	737.9	744.4	751.1	759.8
28470 kPa	714.5	717.4	721.3	725.2	729.8	734.2	739.4	746	752.6	761.4
29490 kPa	715.2	718.1	722	725.9	730.6	735	740.2	746.7	–	–
